Test system: alkaline phosphatase activity in T47D cells
Assay: Effects of progestins and antiprogestins on alkaline phosphatase activity in T47D cells
Type: cell-based
Method: Effects of Progestins and Antiprogestins on Alkaline Phosphatase Activity in T47D Cells
This example was performed to identify progestins or antiprogestins by determining a compound's effect on alkaline phosphatase activity in T47D cells.
Culture medium: DMEM:F12 (1:1) (GIBCO, BRL) supplemented with 5% (v/v) charcoal stripped fetal bovine serum (not heat-inactivated), 100 U/mL penicillin, 100 μg/mL streptomycin, and 2 mM the GlutaMax™ reagent (GIBCO, BRL).
Alkaline phosphatase assay buffer: • I. 0.1M Tris-HCl, pH 9.8, containing 0.2% the Triton® X-100 reagent • II. 0.1 M Tris-HCl, pH 9.8, containing 4 mM p-nitrophenyl phosphate (Sigma).
Frozen T47D cells were thawed in a 37° C. water bath and diluted to 280,000 cells/mL in culture medium. To each well in a 96-well plate (Falcon, Becton Dickinson Labware), 180 μL of diluted cell suspension was added. Twenty μL of reference or test compounds diluted in the culture medium was then added to each well. When testing for progestin antagonist activity, reference antiprogestins or test compounds were added in the presence of 1 nM progesterone. The cells were incubated at 37° C. in a 5% CO2/humidified atmosphere for 24 hours. NOTE: For high throughput screening, one concentration of each compound was tested at 0.3 μg/mL. Based on an average molecular weight of 300 g/mol for the compounds in the library, the concentration was approximately 1 μM. Subsequently, active compounds were tested in dose response assays to determine EC50 and IC50.
At the end of treatment, the medium was removed from the plate. Fifty μL of assay buffer I was added to each well. The plates were shaken in a titer plate shaker for 15 minutes. 150 μL of assay buffer II was then added to each well. Optical density measurements were taken at 5 minute intervals for 30 minutes at a test wavelength of 405 nm.
For reference and test compounds, a dose response curve was generated for dose (X-axis) vs. the rate of enzyme reaction (slope) (Y-axis). Square root-transformed data was used for analysis of variance and nonlinear dose response curve fitting for both agonist and antagonist modes. Huber weighting was used to down-weight the effects of outliners. EC50 or IC50 values were calculated from the retransformed values. JMP software (SAS Institute, Inc.) was used for both one-way analysis of variance and non-4 linear dose response analysis in both single dose and dose response studies.
Progesterone and trimegestone are reference progestins known in the art and typically show an EC50 of about 0.1 nM to about 2.0 nM.

[1] = Homo sapiens, T47D alkaline phosphatase assay, antagonist mode in the presence of 1 nM progesterone, 24 hours

Compound	IC50 [1] [nM]	further results
CCN(CC)S(=O)(=O)c1ccc(-c2ccc(C#N)n2C)c(F)c1 [Example 34, 4-(5-cyano-1-methyl-1H-pyrrol-2-yl)-N,N-diethyl-3-fluorobenzenesulfonamide]	65.6	–
Cn1c(C#N)ccc1-c1ccc(S(=O)(=O)NCC2CC2)c(F)c1 [Example 44, 4-(5-cyano-1-methyl-1H-pyrrol-2-yl)-N-(cyclopropylmethyl)-2-fluorobenzenesulfonamide]	45.6	–
Cn1c(C#N)ccc1-c1ccc(S(=O)(=O)N2CCCC2)c(OC(F)(F)F)c1 [Example 53, 1-methyl-5-[4-(pyrrolidin-1-ylsulfonyl)-3-(trifluoromethoxy)phenyl]-1H-pyrrole-2-carbonitrile]	22.7	–
CCCNS(=O)(=O)c1ccc(-c2ccc(C#N)n2C)c(F)c1 [Example 36, 4-(5-cyano-1-methyl-1H-pyrrol-2-yl)-3-fluoro-N-propylbenzenesulfonamide]	26.5	–
Cn1c(C#N)ccc1-c1ccc(S(=O)(=O)NC2CCC2)c(OC(F)(F)F)c1 [Example 56, 4-(5-cyano-1-methyl-1H-pyrrol-2-yl)-N-cyclobutyl-2-(trifluoromethoxy)benzenesulfonamide]	–	Active Dose (T47D alkaline phosphatase assay, antagonist mode in the presence of 1 nM progesterone, 24 hours): 30 nM
CCNS(=O)(=O)c1ccc(-c2ccc(C#N)n2C)cc1C(F)(F)F [Example 24, 4-(5-cyano-1-methyl-1H-pyrrol-2-yl)-N-ethyl-2-(trifluoromethyl)benzenesulfonamide]	45.8	–
CCCNS(=O)(=O)c1ccc(-c2ccc(C#N)n2C)cc1OC(F)(F)F [Example 52, 4-(5-cyano-1-methyl-1H-pyrrol-2-yl)-N-propyl-2-(trifluoromethoxy)benzenesulfonamide]	8.4	–
CC(=O)[C@H]1CC[C@H]2[C@@H]3CCC4=CC(=O)CC[C@]4(C)[C@H]3CC[C@]12C [Progesterone]	–	EC50 (Homo sapiens, T47D, reference progestins, agonist mode, typical values): 0.1 to 2 nM
Cn1c(C#N)ccc1-c1ccc(S(=O)(=O)N2CCCC2)c(C(F)(F)F)c1 [Example 26, 1-methyl-5-[4-(pyrrolidin-1-ylsulfonyl)-3-(trifluoromethyl)phenyl]-1H-pyrrole-2-carbonitrile]	115	–
CNS(=O)(=O)c1ccc(-c2ccc(C#N)n2C)cc1 [Example 1, 4-(5-cyano-1-methyl-1H-pyrrol-2-yl)-N-methylbenzenesulfonamide]	13.9	–
Cn1c(C#N)ccc1-c1cc(F)c(S(=O)(=O)NCC2CC2)cc1F [Example 62, 4-(5-cyano-1-methyl-1H-pyrrol-2-yl)-N-(cyclopropylmethyl)-2,5-difluorobenzenesulfonamide]	164	–
Cn1c(C#N)ccc1-c1ccc(S(=O)(=O)NC2CCC2)c(C(F)(F)F)c1 [Example 29, 4-(5-cyano-1-methyl-1H-pyrrol-2-yl)-N-cyclobutyl-2-(trifluoromethyl)benzenesulfonamide]	17	–
Cn1c(C#N)ccc1-c1ccc(S(N)(=O)=O)cc1F [Example 30, 4-(5-cyano-1-methyl-1H-pyrrol-2-yl)-3-fluorobenzenesulfonamide]	91	–

Now from value to compound, other results behind:

IC50 [1] [nM]	Compound	further results
81.3	CN(C)S(=O)(=O)c1ccc(-c2ccc(C#N)n2C)cc1 [Example 2, 4-(5-cyano-1-methyl-1H-pyrrol-2-yl)-N,N-dimethylbenzenesulfonamide]	–
32.5	CC(C)NS(=O)(=O)c1ccc(-c2ccc(C#N)n2C)cc1OC(F)(F)F [Example 51, 4-(5-cyano-1-methyl-1H-pyrrol-2-yl)-N-isopropyl-2-(trifluoromethoxy)benzenesulfonamide]	–
66.1	CCN(C)S(=O)(=O)c1ccc(-c2ccc(C#N)n2C)cc1 [Example 7, 4-(5-cyano-1-methyl-1H-pyrrol-2-yl)-N-ethyl-N-methylbenzenesulfonamide]	–
40.8	Cn1c(C#N)ccc1-c1ccc(S(=O)(=O)NCC(F)(F)F)cc1 [Example 16, 4-(5-cyano-1-methyl-1H-pyrrol-2-yl)-N-(2,2,2-trifluoroethyl)benzenesulfonamide]	–
40.4	Cn1c(C#N)ccc1-c1ccc(S(=O)(=O)NCC2CC2)cc1F [Example 39, 4-(5-cyano-1-methyl-1H-pyrrol-2-yl)-N-(cyclopropylmethyl)-3-fluorobenzenesulfonamide]	–

— US7723332B2, “Aryl sulfonamides useful for modulation of the progesterone receptor” (Wyeth LLC, priority 2007, dated 2010)
